The values that follow come from US8652999B1, “Herbicidal compositions comprising 4-amino-3-chloro-5-fluoro-6-(4-chloro-2-fluoro-3-methoxyphenyl)pyridine-2-carboxylic acid or a derivative thereof and a sulfonylaminocarbonyltriazolinone” (Dow AgroSciences, LLC., priority 2012, dated 2014).

Holding throughout (type): in vivo
One test has as its system Stellaria media (STEME). The experiment in a line: Postemergence herbicidal activity, greenhouse, STEME. The settings on record: foliar, 20-22 days. How it is done: (§1) Evaluation of Postemergence Herbicidal Activity of Mixtures in Cereal Crops
(§2) Seeds of the desired test plant species were planted in Sun Gro MetroMix® 306 planting mixture, which typically has a pH of 6.0 to 6.8 and an organic matter content of about 30 percent, in plastic pots with a surface area of 103.2 square centimeters (cm^2). […] The plants were grown for 7-36 days in a greenhouse with an approximate 14 hour photoperiod which was maintained at about 18° C. during the day and 17° C. during the night. Nutrients and water were added on a regular basis and supplemental lighting was provided with overhead metal halide 1000-Watt lamps as necessary. The plants were employed for testing when they reached the second or third true leaf stage.
(§3) Treatments consisted of the benzyl ester of the compound of formula (I) (Compound A as listed in Tables 1-8) and a second cereal herbicide alone and in combination. […] The concentrated stock solutions were diluted to 1.5 mg ai/mL with the addition of 2 volumes of an aqueous mixture containing acetone, water, isopropyl alcohol, DMSO, Agri-dex crop oil concentrate, and Triton® X-77 surfactant in a 64.7:26.0:6.7:2.0:0.7:0.01 v/v ratio. A dilution solution was prepared by mixing 1 volume of 97:3 v/v acetone/DMSO and 2 volumes of an aqueous mixture containing acetone, water, isopropyl alcohol, DMSO, Agri-dex crop oil concentrate, and Triton® X-77 surfactant in a 64.7:26.0:6.7:2.0:0.7:0.01 v/v ratio. Compound requirements are based upon a 12 mL application volume at a rate of 187 liters per hectare (L/ha). […] Formulated compounds were applied to the plant material with an overhead Mandel track sprayer equipped with 8002E nozzles calibrated to deliver 187 L/ha over an application area of 0.503 square meters (m^2) at a spray height of 18 inches (43 cm) above average plant canopy. Control plants were sprayed in the same manner with the solvent blank.
(§4) The treated plants and control plants were placed in a greenhouse as described above and watered by sub-irrigation to prevent wash-off of the test compounds. After 20-22 days, the condition of the test plants as compared with that of the control plants was determined visually and scored on a scale of 0 to 100 percent where 0 corresponds to no injury and 100 corresponds to complete kill.
(§5) Colby's equation was used to determine the herbicidal effects expected from the mixtures (Colby, S. R. 1967. Calculation of the synergistic and antagonistic response of herbicide combinations. Weeds 15:20-22.). Specifically, the following equation was used to calculate the expected activity of mixtures containing two active ingredients, A and B: Expected=A+B−(A×B/100) • A=observed efficacy of active ingredient A at the same concentration as used in the mixture. • B=observed efficacy of active ingredient B at the same concentration as used in the mixture.

Test [1] deals with Apera spica-venti (APESV). The experiment in a line: Postemergence herbicidal activity, greenhouse, APESV. The settings on record: foliar, 20-22 days. The procedure: as §1, §2, §3, §4, §5
For a further test, the system named is Cirsium arvense (CIRAR). The experiment in a line: Postemergence herbicidal activity, greenhouse, CIRAR. The note with it: foliar, 20-22 days. The procedure: as §1, §2, §3, §4, §5
For another test, the system named is Veronica persica (VERPE). The experiment in a line: Postemergence herbicidal activity, greenhouse, VERPE. The settings on record: foliar, 20-22 days. How it is done:
as §1, §2, §3, §4, §5

In test [2] the test system is Alopecurus myosuroides (ALOMY). The experiment in a line: Postemergence herbicidal activity, greenhouse, ALOMY. The settings on record: foliar, 20-22 days. How it is done: as §1, §2, §3, §4, §5
Test [3] relates to Matricaria chamomila (MATCH). The experiment in a line: Postemergence herbicidal activity, greenhouse, MATCH. The note with it: foliar, 20-22 days. How it is done: as §1, §2, §3, §4, §5
The subject of test [4] is Triticum aestivum (TRZAW). The experiment in a line: Postemergence herbicidal activity, greenhouse, TRZAW. The note with it: foliar, 20-22 days. How it is done:
as §1, §2, §3, §4, §5

For the next test, the system named is Papaver rhoeas (PAPRH). The experiment in a line: Postemergence herbicidal activity, greenhouse, PAPRH. The note with it: foliar, 20-22 days. The procedure: as §1, §2, §3, §4, §5
Test [5] relates to Lolium multiflorum subsp. gaudini (LOLMG). The experiment in a line: Postemergence herbicidal activity, greenhouse, LOLMG. The note with it: foliar, 20-22 days. How it is done: as §1, §2, §3, §4, §5
The subject of the next test is Salsola tragus (SASKR). The experiment in a line: Postemergence herbicidal activity, greenhouse, SASKR. The note with it: foliar, 20-22 days. How it is done:
as §1, §2, §3, §4, §5

In the next test the test system is Viola tricolor (VIOTR). The experiment in a line: Postemergence herbicidal activity, greenhouse, VIOTR. The note with it: foliar, 20-22 days. How it is done: as §1, §2, §3, §4, §5
The next test has as its system Kochia scoparia (KCHSC). The experiment in a line: Postemergence herbicidal activity, greenhouse, KCHSC. The note with it: foliar, 20-22 days. How it is done:
as §1, §2, §3, §4, §5

In a further test the test system is Setaria viridis (SETVI). The experiment in a line: Postemergence herbicidal activity, greenhouse, SETVI. The settings on record: foliar, 20-22 days. The procedure: as §1, §2, §3, §4
(§6) Colby's equation was used to determine the herbicidal effects expected from the mixtures (Colby, S. R. 1967. Calculation of the synergistic and antagonistic response of herbicide combinations. Weeds 15:20-22.). […]

The test system of the next test is Lamium purpureum (LAMPU). The experiment in a line: Postemergence herbicidal activity, greenhouse, LAMPU. The settings on record: Propoxycarbazone-Na 15 g/ha; foliar; 20-22 days. The procedure:
as §1, §2, §3, §4, §6

Setting [6] is: Propoxycarbazone-Na 7.5 g ai/ha.

Consider `COc1nn(C(=O)NS(=O)(=O)c2ccccc2OC(F)(F)F)c(=O)n1C` [Flucarbazone-Na, 4,5-dihydro-3-methoxy-4-methyl-5-oxo-N-[[2-(trifluoromethoxy)phenyl]sulfonyl]-1H-1,2,4-triazole-1-carboxamide], for which the “STEME Obs” value in the test on Stellaria media (STEME) (Flucarbazone-Na 3.75 g ai/ha) was found to be 3%; in the test with Stellaria media (STEME) (Flucarbazone-Na 7.5 g ai/ha), 7%; in the test on Stellaria media (STEME) (Flucarbazone-Na 7.5 g/ha), 60%. Besides, the “APESV Obs” value is 33% in [1] (Flucarbazone-Na 3.75 g/ha) and 75% in test [1] (Flucarbazone-Na 7.5 g/ha). Besides, in the test with Cirsium arvense (CIRAR) (Flucarbazone-Na 7.5 g/ha), the “CIRAR Obs” value is recorded as 50%. The “VERPE Obs” value with Veronica persica (VERPE) (Flucarbazone-Na 3.75 g ai/ha), with Veronica persica (VERPE) (Flucarbazone-Na 7.5 g ai/ha) and in the test on Veronica persica (VERPE) (Flucarbazone-Na 7.5 g/ha) was 0% throughout. Further, the “ALOMY Obs” value in test [2] (Flucarbazone-Na 3.75 g/ha) is reported as 8%; in test [2] (Flucarbazone-Na 7.5 g/ha), 17%. The figures for the “MATCH Obs” value in [3] (Flucarbazone-Na 3.75 g ai/ha), in test [3] (Flucarbazone-Na 7.5 g ai/ha) and in test [3] (Flucarbazone-Na 7.5 g/ha) were 10%, 10% and 30%, respectively. Also, the “TRZAW Obs” value in [4] (Flucarbazone-Na 3.75 g ai/ha) was found to be 2%; in [4] (Flucarbazone-Na 7.5 g ai/ha), 7%. The “PAPRH Obs” value in the test with Papaver rhoeas (PAPRH) (Flucarbazone-Na 3.75 g ai/ha) and in the test with Papaver rhoeas (PAPRH) (Flucarbazone-Na 7.5 g ai/ha) was 0% throughout. Also, the “LOLMG Obs” value in test [5] (Flucarbazone-Na 3.75 g/ha) and in test [5] (Flucarbazone-Na 7.5 g/ha) was 0% throughout. Further, the “SASKR Obs” value in the test with Salsola tragus (SASKR) (Flucarbazone-Na 3.75 g ai/ha) worked out at 10%; in the test with Salsola tragus (SASKR) (Flucarbazone-Na 7.5 g ai/ha), 7%. For the same molecule, the “VIOTR Obs” value with Viola tricolor (VIOTR) (Flucarbazone-Na 3.75 g ai/ha) and with Viola tricolor (VIOTR) (Flucarbazone-Na 7.5 g ai/ha) was 7% each time.

In the case of `CCCOc1nn(C(=O)NS(=O)(=O)c2ccccc2C(=O)OC)c(=O)n1C` [Propoxycarbazone-Na, methyl 2-[[[(4,5-dihydro-4-methyl-5-oxo-3-propoxy-1H-1,2,4-triazol-1-yl)-carbonyl]amino]sulfonyl]benzoate], the “STEME Obs” value is recorded as 12% in the test with Stellaria media (STEME) (setting [6]), 10% in the test with Stellaria media (STEME) (Propoxycarbazone-Na 15 g ai/ha) and 45% with Stellaria media (STEME) (Propoxycarbazone-Na 15 g/ha). Further, the “KCHSC Obs” value with Kochia scoparia (KCHSC) (setting [6]) came out at 13%; in the test on Kochia scoparia (KCHSC) (Propoxycarbazone-Na 15 g ai/ha), 25%. The results for the “APESV Obs” value in test [1] (Propoxycarbazone-Na 7.5 g ha) and in [1] (Propoxycarbazone-Na 15 g ha) were 17% and 23%, respectively. The “CIRAR Obs” value with Cirsium arvense (CIRAR) (Propoxycarbazone-Na 15 g/ha) amounted to 65%. The “SETVI Obs” value with Setaria viridis (SETVI) (Propoxycarbazone-Na 7.5 g ha) and with Setaria viridis (SETVI) (Propoxycarbazone-Na 15 g ha) was 0% in each case. Besides, the “ALOMY Obs” value in [2] (Propoxycarbazone-Na 7.5 g ha) was 10%; in test [2] (Propoxycarbazone-Na 15 g ha), 43%. Further, the “MATCH Obs” value in test [3] (setting [6]) was 13%; in [3] (Propoxycarbazone-Na 15 g ai/ha), 20%. Also, the “TRZAW Obs” value in [4] (setting [6]) is 8%; in test [4] (Propoxycarbazone-Na 15 g ai/ha), 5%. Besides, the “PAPRH Obs” value in the test on Papaver rhoeas (PAPRH) (setting [6]) is 18%; in the test with Papaver rhoeas (PAPRH) (Propoxycarbazone-Na 15 g ai/ha), 23%. The “LAMPU Obs” value in the test with Lamium purpureum (LAMPU) came to 0%. Besides, the figures for the “LOLMG Obs” value in test [5] (Propoxycarbazone-Na 7.5 g ha) and in test [5] (Propoxycarbazone-Na 15 g ha) were 3% and 20%, respectively. Further, the “VIOTR Obs” value stood at 13% in the test with Viola tricolor (VIOTR) (setting [6]) and 23% with Viola tricolor (VIOTR) (Propoxycarbazone-Na 15 g ai/ha).
